This passage reports IC50 results from US8013006B2.

Read-outs that look alike come from different tables or passages of the source.

This test relates to HCV replicon. The experiment in a line: microbe, parasite or virus in culture. The format is cell-based.
Setting [1] is: Replicon IC50 values are determined by firefly luciferase signal, bicistronic replicon, 2 days, read-out: Replicon IC5Os.

Regarding `CC(=O)OCc1c(OC(C)=O)ccc2c([N+](=O)[O-])c(C)n(-c3ccc(C)cc3)c12` [Compound 1], the IC50 (Hepatitis C virus, 48 h, read-out: Replicon IC5Os μM) is over 2 µM.
As for `COc1ccc(-n2c(C)c([N+](=O)[O-])c3cc(CN(C)C)c(O)cc32)cc1` [Compound 3], the IC50 under setting [1] was over 2 µM.
`CC(C)n1cc(C#N)c2ccc(O)cc21` [Compound 6]: under setting [1], the IC50 was over 2 µM.
The same measure, in the same setting: for `COc1ccc2c(C#N)cn(-c3ccc(C)c(C)c3)c2c1` [Compound 8] the value was 0.5 to 2 µM.
Still for that read-out and setting: the value for `CCCCOc1ccc2c(C#N)cn(CC)c2c1` [Compound 11] was over 2 µM.
Turning to `CCn1cc(C#N)c2ccc(OCc3ccccc3)cc21` [Compound 12], the IC50 under setting [1] was in the range of 0.5 to 2 µM.
Turning to `CCOC(=O)c1cn(CC)c2cc(OC)ccc12` [Compound 17], the IC50 under setting [1] is over 2 µM.
Consider `CCn1cc(C#N)c2ccc(OC(F)F)cc21` [Compound 18], for which the IC50 under setting [1] was over 2 µM.
The same measure, in the same setting: the value for `CCn1c(-c2ccoc2)c(C#N)c2ccc(OC)cc21` [Compound 20] was over 2 µM; that for `CCn1c(-c2ccccc2)c(C#N)c2ccc(OC)cc21` [Compound 21] was over 2 µM; that for `CCn1cc(C#N)c2ccc(-n3cccc3)cc21` [Compound 27] was 0.5 to 2 µM.
Still for that read-out and setting: for `CCn1cc(-c2noc(C3CC3)n2)c2ccc(OC)cc21` [Compound 29] the value was over 2 µM.
The same measure, in the same setting: the value for `CCNc1c(C(=O)OC)c2ccc([N+](=O)O)cc2n1CC` [Compound 30] was over 2 µM.
As for `CCn1cc(C(=O)c2ccccc2)c2cc(OC)ccc21` [Compound 32], the IC50 under setting [1] is over 2 µM.
With `CCn1cc(C(=O)c2ccccc2)c2ccc(OC)cc21` [Compound 33], the IC50 under setting [1] was over 2 µM.
Same read-out and setting: for `CCC(=O)c1cn(CC)c2cc(OC)ccc12` [Compound 34] the value was over 2 µM; for `CCn1cc(C(=O)C(C)C)c2ccc(OC)cc21` [Compound 37], over 2 µM.
Same read-out and setting: for `CCn1cc(C(=O)c2cccc(OC)c2)c2ccc(OC)cc21` [Compound 38] the value was over 2 µM; for `CCn1cc(C(=O)c2cccc(OC)c2)c2cc(OC)ccc21` [Compound 39], over 2 µM.
For `COc1ccc(-c2c[nH]c3ccc([N+](=O)O)cc23)cc1` [Compound 40], the IC50 under setting [1] was over 2 µM.
Still for that read-out and setting: for `COc1ccc(-n2cc(C(C)=O)c3cc(OC)ccc32)cc1` [Compound 42, 1-[5-methoxy-1-(4-methoxyphenyl)-1-H-indol-3-yl]-ethanone] the value was over 2 µM; for `CC(C)n1cc(C#N)c2cc3c(cc21)OCO3` [Compound 43], over 2 µM.
As for `CCOC(=O)c1c(C)n(-c2ccc(OC)cc2)c2cc(OC(F)F)ccc12` [Compound 46], the IC50 under setting [1] is over 2 µM.
Regarding `COc1ccc(-n2cc(C(=O)c3ccc(F)cc3)c3ccc(OC)cc32)cc1` [Compound 47], the IC50 under setting [1] is over 2 µM.
Same read-out and setting: the value for `N#Cc1cn(C(F)F)c2cc(OC(F)F)ccc12` [Compound 50] was over 2 µM.
On the same count and under the same terms, for `CC(C)n1cc(C#N)c2cc3c(cc21)OCCO3` [Compound 52] the value was over 2 µM; for `CCn1cc(-c2ccno2)c2ccc(C(=O)OC)cc21` [Compound 60], over 2 µM; for `CCn1cc(-c2ccn[nH]2)c2ccc(C(=O)OC)cc21` [Compound 61], over 2 µM.
The same measure, in the same setting: the value for `CCOC(=O)c1cn(CC)c2cc3c(cc12)OCO3` [Compound 62] was over 2 µM.
Take `CCn1c(-c2ccc(C(C)(C)C)cc2)c(C#N)c2ccc(OC)cc21` [Compound 63]: the IC50 under setting [1] was over 2 µM.
Take `CCn1c(C#Cc2ccccc2)c(C#N)c2ccc(OC)cc21` [Compound 64]: the IC50 under setting [1] is over 2 µM.
Same read-out and setting: for `CCn1c(C#Cc2ccc(OC)cc2)c(C#N)c2ccc(OC)cc21` [Compound 65] the value was 0.5 to 2 µM; for `CCn1c(C#Cc2cccc(OC)c2)c(C#N)c2ccc(OC)cc21` [Compound 66], over 2 µM; for `CCn1c(C#Cc2ccc(C)cc2)c(C#N)c2ccc(OC)cc21` [Compound 68], 0.5 to 2 µM.
Consider `CCOc1ccc(-c2c(C#N)c3ccc(OC)cc3n2CC)cc1` [Compound 70], for which the IC50 under setting [1] is over 2 µM.
Consider `CCn1c(-c2ccc(C(=O)N(C)C)cc2)c(C#N)c2ccc(OC)cc21` [Compound 71], for which, under setting [1], the IC50 is over 2 µM.
On to `CCn1c(-c2ccc(OC)c(F)c2)c(C#N)c2ccc(OC)cc21` [Compound 74], for which the IC50 under setting [1] is over 2 µM.
On to `COc1ccc(-c2c(C#N)c3ccc(OC)cc3n2C)cc1` [Compound 76], for which the IC50 under setting [1] was over 2 µM.
Turning to `CCOc1ccc(-c2c(C#N)c3ccc(OC)cc3n2C)cc1` [Compound 77], under setting [1], the IC50 is over 2 µM.
The same measure, in the same setting: the value for `CCn1cc(-c2nccs2)c2ccc(C(=O)OC)cc21` [Compound 78] was over 2 µM; that for `CCn1c(-c2ccc(C(C)C)cc2)c(C#N)c2ccc(C(N)=O)cc21` [Compound 79] was over 2 µM; that for `CCn1c(-c2ccc(NS(=O)(=O)CC)cc2)c(C#N)c2ccc(OC)cc21` [Compound 83] was under 0.5 µM.
Still for that read-out and setting: the value for `COc1ccc2c(C#N)c(-c3ccc(NS(C)(=O)=O)cc3)n(C3CCC3)c2c1` [Compound 87] was under 0.5 µM; that for `COc1ccc(-n2cc(C#N)c3ccc(C(=O)NO)cc32)cc1` [Compound 89] was 0.5 to 2 µM.
The same measure, in the same setting: the value for `COc1ccc(-n2cc(C#N)c3ccc(NC(=O)OC(C)(C)C)cc32)cc1` [Compound 90] was over 2 µM; that for `COc1ccc(C#Cc2c(C#N)c3ccc(OC)cc3n2C)cc1` [Compound 92] was over 2 µM.
For the molecule `COc1ccc2c(C#N)c(C#Cc3ccc(F)cc3)n(C)c2c1` [Compound 93], the IC50 under setting [1] was over 2 µM.
On to `COc1ccc(-n2cc(C#N)c3ccc(NC(=O)NC(C)(C)C)cc32)cc1` [Compound 98], for which the IC50 under setting [1] is over 2 µM.
With `COc1ccc2c(C#N)c(-c3cccc(C)c3)n(C)c2c1` [Compound 100], the IC50 under setting [1] was over 2 µM.
On to `COc1ccc(-n2cc(C#N)c3ccc(F)cc32)cc1` [Compound 102], for which, under setting [1], the IC50 was over 2 µM.
Consider `COc1ccc(-n2cc(C#N)c3ccc(C)cc32)cc1` [Compound 103], for which the IC50 under setting [1] is over 2 µM.
For `COc1ccc(-n2cc(-c3nc(C(C)(C)C)cs3)c3ccc(C(N)=O)cc32)cc1` [Compound 104], the IC50 under setting [1] was 0.5 to 2 µM.
In the case of `COC(=O)c1ccc2c(-c3nc(-c4ccncc4)cs3)cn(-c3ccc(OC)cc3)c2c1` [Compound 105], the IC50 under setting [1] was over 2 µM.
Still for that read-out and setting: for `COc1ccc(-n2cc(-c3nc(-c4ccc(Cl)c(Cl)c4)cs3)c3ccc(C(N)=O)cc32)cc1` [Compound 106] the value was over 2 µM; for `CCn1cc(C#N)c2cc(Br)ccc21` [Compound 108], over 2 µM; for `CCCn1cc(C#N)c2cc(Br)ccc21` [Compound 109], over 2 µM.
As to `CCOC(=O)c1ccc(-c2c(C#N)c3ccc(OC)cc3n2CC)cc1` [Compound 110], the IC50 under setting [1] fell in the range of 0.5 to 2 µM.
`Cc1ccc2c(C#N)cn(-c3ccc4c(c3)OCO4)c2c1` [Compound 112]: the IC50 under setting [1] lay in the range of 0.5 to 2 µM.
Same read-out and setting: the value for `CCn1c(-c2ccc(C(=O)N3CCCC3)cc2)c(C#N)c2ccc(OC)cc21` [Compound 113] was over 2 µM; that for `CCn1c(-c2ccc(C(=O)N3CCOCC3)cc2)c(C#N)c2ccc(OC)cc21` [Compound 114] was over 2 µM.
Still for that read-out and setting: for `N#Cc1c[nH]c2cc(Cl)ccc12` [Compound 115] the value was over 2 µM; for `COc1ccc(-n2cc(C#N)c3ccccc32)cc1` [Compound 117], over 2 µM.
